Entries after “also recorded” stand apart in the source; their conditions may differ.
Tests used:
[1] = test system: platelets; assay: Loss of NBD-PS fluorescence from stimulated platelets (PS exposure); assay type: cell-based; conditions: 10 μM A23187, 8 min
Source text: In order to estimate the rate and extent of PS exposure on the platelet plasma membrane we utilized fluorescence-labeled PS (Reference 62). Prior reports indicate that platelets translocate NBD-PS to the inner leaflet of the plasma membrane, like unlabeled PS. When stimulated platelets transfer NBD-PS to the outer leaflet of the plasma membrane it is rapidly exchanged into delipidated albumin that is present in the buffer. Thus, translocation of NBD-PS to the outer plasma membrane causes a net loss in cell fluorescence. NBD-PS was loaded into membranes of resting platelets from donor vesicles prior to platelet purification. The rate and extent of platelet fluorescence loss provide an estimate of the rate and extent of plasma membrane PS exposure.
During the first minute after addition of TRAP the fluorescence loss was 12±1.8% vs. 5±2.5% for control platelets. Stimulation with 10 μM A23187 led to the same rate of fluorescence loss during the first minute but the rate was maintained so that after 8 min. >90% of NBD fluorescence was lost (FIG. 12B inset).

[2] = test system: platelets; assay: Lactadherin binding to A23187-stimulated platelets (flow cytometry); assay type: cell-based; conditions: Platelet; 0.25 μM A23187 vs. unstimulated platelets; read-out: net increase of fluorescence (bound lactadherin)
Description: We asked whether platelets have a stimulated state when they bind lactadherin but not annexin V, consistent with the hypothesis that platelets have the capacity to regulate PS exposure at a level less than 2.5% PS (FIG. 8A-C). Platelets were incubated with fluorescein labeled lactadherin and Alexa Fluor 647 labeled annexin V. Because competition of either protein for the other's binding sites was <20% at these concentrations (FIG. 7C, 7D) we utilized both proteins simultaneously. The gain on the flow cytometer was set so that the intrinsic fluorescence of unstimulated platelets placed the population in the lower left quadrant of the display (FIG. 8A). […] Comparison with the unstimulated state indicates a net increase of fluorescence to approximately 3-fold. (FIG. 8B). The cross-hair allows comparison of modal fluorescence values for resting platelets vs. stimulated platelets.

[3] = target: T1, bovine lactadherin (fluorescein-labeled, purified from bovine milk) (Bos taurus, UniProt Q95114); assay: Equilibrium binding of fluorescein-labeled lactadherin to lipospheres (membranes on glass microspheres, flow cytometry); conditions: for binding of lactadherin: lipospheres with 2% synthetic dioleoyl lipid, 20% PE, balance PC, FIG. 5A
T1 construct: from tissue; host or cells: bovine milk
T1 sequence (Q95114 19-427): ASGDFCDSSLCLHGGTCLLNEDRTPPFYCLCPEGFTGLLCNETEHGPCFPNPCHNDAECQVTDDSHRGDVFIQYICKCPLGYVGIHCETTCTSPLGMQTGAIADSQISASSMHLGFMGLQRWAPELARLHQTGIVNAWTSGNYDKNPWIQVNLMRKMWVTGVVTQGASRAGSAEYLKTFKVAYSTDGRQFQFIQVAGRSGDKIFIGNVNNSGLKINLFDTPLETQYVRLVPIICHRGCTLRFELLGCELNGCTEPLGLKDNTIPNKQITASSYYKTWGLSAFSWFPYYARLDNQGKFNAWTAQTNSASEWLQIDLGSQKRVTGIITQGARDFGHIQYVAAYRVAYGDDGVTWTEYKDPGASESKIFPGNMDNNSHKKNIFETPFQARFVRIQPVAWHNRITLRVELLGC
Description: (§1) Lactadherin was purified from bovine milk as previously described (Reference 1). Lactadherin, 0.2 mg in 0.2 ml phosphate-buffered saline, was concentrated 10-fold by ultrafiltration with a Centricon YM-10 (Millipore, Bedford, Mass.) followed by dilution to the starting concentration into 0.1 M sodium carbonate buffer, pH 9.0. Fluorescein isothiocyanate (Molecular Probes, Eugene, Oreg.) 6 μl of 10 mg/ml solution in DMSO, was added to lactadherin and the mixture was incubated for one hour at RT in the dark. Free fluorescein was removed by gel filtration using a micro spin column equilibrated with 0.1 M sodium carbonate, 0.1 M betaine, 0.004% Tween-80, pH 9.0 (FluoReporter FITC Protein Labeling Kit, Molecular Probes, Eugene, Oreg.). Fluorescein-labeled lactadherin was concentrated approx. 10-fold by ultrafiltration using a Centricon YM-10, and diluted to approximately the original concentration in 0.15 M NaCl, 50 mM Tris-HCl, pH 7.5. Labeling efficiency was judged by comparison of absorbance at 490 nm to absorbance at 280 nm (correcting for fluorescein absorbance at 280 nm).
Glass microspheres of 1.6 μm nominal diameter (Duke Scientific, Palo Alto, Calif.) were cleaned, size-restricted and covered with a phospholipid bilayer as previously described (Reference 17). Membranes supported by glass microspheres were washed three times in 0.15 M NaCl, 0.02 M Tris-HCl, 0.1% defatted bovine albumin, 10 μM egg PC as sonicated vesicles; stored at 4° C.; and used within 8 hours of synthesis. Fluorescein-labeled factor VIII (4 nM) was incubated with lactadherin or annexin V for 15 min at room temperature, the mixture was added to lipospheres for an additional 10 minutes, and membrane-bound fVIII was measured by flow cytometry. This procedure was performed on 150 μl aliquots with an approximate liposphere concentration of 1×10^6/ml using a Becton Dickinson FACSCalibur flow cytometer. Data acquisition was triggered by forward light scatter with all photomultipliers in the log mode. […] Mean log fluorescence was converted to linear fluorescence for values depicted in the figures. Only experiments in which the fluorescence histogram indicated a log normal distribution, as judged by inspection, were analyzed quantitatively. […]
The equilibrium binding of lactadherin to lipospheres was fitted by non-linear, least squares data analysis using the standard binding model (assuming a single class of binding sites and that the fraction of bound lactadherin was small at each concentration evaluated). […]
Fluorescein-labeled lactadherin interacted with phospholipid bilayers supported by glass microspheres (lipospheres). […] After 10 minutes, we measured bound lactadherin using flow cytometry (FIG. 1A). […]

[4] = target: T1, bovine lactadherin (fluorescein-labeled, purified from bovine milk); assay: Competition of soluble head group for fluorescein-lactadherin binding to lipospheres (flow cytometry); conditions: for inhibition of lactadherin binding: concentrations as high as 0.35 M
Description: Flow Cytometry Phospholipid Binding Assay
Glass microspheres of 1.6 μm nominal diameter (Duke Scientific, Palo Alto, Calif.) were cleaned, size-restricted and covered with a phospholipid bilayer as previously described (Reference 17). Membranes supported by glass microspheres were washed three times in 0.15 M NaCl, 0.02 M Tris-HCl, 0.1% defatted bovine albumin, 10 μM egg PC as sonicated vesicles; stored at 4° C.; and used within 8 hours of synthesis. […] This procedure was performed on 150 μl aliquots with an approximate liposphere concentration of 1×10^6/ml using a Becton Dickinson FACSCalibur flow cytometer. Data acquisition was triggered by forward light scatter with all photomultipliers in the log mode. Noise was reduced during analysis by eliminating events with forward and side scatter values different from those characteristic of the lipospheres. Mean log fluorescence was converted to linear fluorescence for values depicted in the figures. Only experiments in which the fluorescence histogram indicated a log normal distribution, as judged by inspection, were analyzed quantitatively. Flow cytometry experiments were performed in 0.14 M NaCl, 0.02 M Trizma-HCl, 0.1% bovine albumin, pH 7.5 with CaCl2 as specified for individual experiments.
Fluorescein-labeled lactadherin was incubated with 10^6 lipospheres/ml in Tris-buffered saline, 1.5 mM CaCl2, 0.1% BSA for 10 min. prior to evaluation of bound lactadherin by flow cytometry. The final concentrations of lactadherin were varied to estimate the affinity and stoichiometry of bound lactadherin.
To estimate the stereoselective affinity of lactadherin for the L-serine containing head group of Ptd-L-Ser, we performed binding inhibition studies (FIG. 5B).

[5] = target: T1, bovine lactadherin (fluorescein-labeled, purified from bovine milk); assay: Competition of phospholipid vesicles with lipospheres for fluorescein-labeled lactadherin; assay type: binding; conditions: for support of lactadherin binding: vesicles lacking Ptd-L-Ser, FIG. 4B; for effect on number of binding sites or affinity for lactadherin: extruded vesicles, 0-20% PE, 1% Ptd-L-Ser
Description: as §1
Phospholipid vesicles were prepared by evaporating chloroform from the desired phospholipids, resuspending in methylene chloride and re-evaporating twice under argon. Large multilamellar vesicles were prepared by gently swirling tris-buffered saline (50 mM Tris, 150 mM NaCl, pH 7.4) over the dried lipid suspension until all lipid was suspended. Some of the large multilamellar vesicles were then utilized to prepare small unilamellar vesicles by sonication in a high intensity bath sonicator (Laboratory Supplies, Inc. Hicksville, N.Y.) under argon until visually clear (approx. 20 min.). Large unilamellar vesicles were made by extruding large multilamellar vesicle suspensions 20 times through […] polycarbonate membranes (Millipore, Bedford, Mass.) in a High Pressure Extrusion Device (Sciema Technical Services, Vancouver, BC, Canada) under argon as described previously (Reference 39). Phospholipid concentration was determined by phosphorus assay (Reference 40). Vesicles were used fresh, or 1 ml aliquots were quick-frozen in liquid nitrogen, stored at −80° C., and thawed at 37° C.
Glass microspheres of 1.6 μm nominal diameter (Duke Scientific, Palo Alto, Calif.) were cleaned, size-restricted and covered with a phospholipid bilayer as previously described (Reference 17). Membranes supported by glass microspheres were washed three times in 0.15 M NaCl, 0.02 M Tris-HCl, 0.1% defatted bovine albumin, 10 μM egg PC as sonicated vesicles; stored at 4° C.; and used within 8 hours of synthesis. Fluorescein-labeled factor VIII (4 nM) was incubated with lactadherin or annexin V for 15 min at room temperature, the mixture was added to lipospheres for an additional 10 minutes, and membrane-bound fVIII was measured by flow cytometry. This procedure was performed on 150 μl aliquots with an approximate liposphere concentration of 1×10^6/ml using a Becton Dickinson FACSCalibur flow cytometer. Data acquisition was triggered by forward light scatter with all photomultipliers in the log mode. Noise was reduced during analysis by eliminating events with forward and side scatter values different from those characteristic of the lipospheres. Mean log fluorescence was converted to linear fluorescence for values depicted in the figures. Only experiments in which the fluorescence histogram indicated a log normal distribution, as judged by inspection, were analyzed quantitatively. […]

[6] = target: T2, Recombinant human factor VIII (Homo sapiens, UniProt P00451); assay: Binding of factor VIII to lipospheres; conditions: lipospheres containing 4% Ptd-L-Ser; read-out: dissociation constant of factor VIII for lipospheres
T2 construct: Gift from D. Pittman, Genetics Institute, Cambridge, Mass
Source text: Human factor V was obtained from Haematologic Technologies Inc. (Burlington, Vt.). Recombinant human factor VIII was a gift from D. Pittman of Genetics Institute, Cambridge, Mass. Bovine brain phosphatidylserine (Ptd-L-Ser), egg yolk phosphatidylethanolamine (PE), bovine liver phosphatidylinositol, egg sphingomyelin, egg phosphatidylcholine (PC) and dioleoyl PC were obtained from Avanti Polar Lipids (Alabaster, AL). Phospholipase D from streptomyces, phospho-L-serine phospho-D-serine, L-serine and D-serine were obtained from Sigma.
Factor VIII and factor V were labeled with fluorescein maleimide (Molecular Probes, Eugene, Oreg.) as previously described (References 17 and 37). Protein concentration of factor VIII was determined using a Micro-BCA Assay (Pierce, Rockford, Ill.) using bovine albumin as a standard.
Glass microspheres of 1.6 μm nominal diameter (Duke Scientific, Palo Alto, Calif.) were cleaned, size-restricted and covered with a phospholipid bilayer as previously described (Reference 17). […] Fluorescein-labeled factor VIII (4 nM) was incubated with lactadherin or annexin V for 15 min at room temperature, the mixture was added to lipospheres for an additional 10 minutes, and membrane-bound fVIII was measured by flow cytometry. […] Mean log fluorescence was converted to linear fluorescence for values depicted in the figures. […]

T2 sequence (P00451 20-2351): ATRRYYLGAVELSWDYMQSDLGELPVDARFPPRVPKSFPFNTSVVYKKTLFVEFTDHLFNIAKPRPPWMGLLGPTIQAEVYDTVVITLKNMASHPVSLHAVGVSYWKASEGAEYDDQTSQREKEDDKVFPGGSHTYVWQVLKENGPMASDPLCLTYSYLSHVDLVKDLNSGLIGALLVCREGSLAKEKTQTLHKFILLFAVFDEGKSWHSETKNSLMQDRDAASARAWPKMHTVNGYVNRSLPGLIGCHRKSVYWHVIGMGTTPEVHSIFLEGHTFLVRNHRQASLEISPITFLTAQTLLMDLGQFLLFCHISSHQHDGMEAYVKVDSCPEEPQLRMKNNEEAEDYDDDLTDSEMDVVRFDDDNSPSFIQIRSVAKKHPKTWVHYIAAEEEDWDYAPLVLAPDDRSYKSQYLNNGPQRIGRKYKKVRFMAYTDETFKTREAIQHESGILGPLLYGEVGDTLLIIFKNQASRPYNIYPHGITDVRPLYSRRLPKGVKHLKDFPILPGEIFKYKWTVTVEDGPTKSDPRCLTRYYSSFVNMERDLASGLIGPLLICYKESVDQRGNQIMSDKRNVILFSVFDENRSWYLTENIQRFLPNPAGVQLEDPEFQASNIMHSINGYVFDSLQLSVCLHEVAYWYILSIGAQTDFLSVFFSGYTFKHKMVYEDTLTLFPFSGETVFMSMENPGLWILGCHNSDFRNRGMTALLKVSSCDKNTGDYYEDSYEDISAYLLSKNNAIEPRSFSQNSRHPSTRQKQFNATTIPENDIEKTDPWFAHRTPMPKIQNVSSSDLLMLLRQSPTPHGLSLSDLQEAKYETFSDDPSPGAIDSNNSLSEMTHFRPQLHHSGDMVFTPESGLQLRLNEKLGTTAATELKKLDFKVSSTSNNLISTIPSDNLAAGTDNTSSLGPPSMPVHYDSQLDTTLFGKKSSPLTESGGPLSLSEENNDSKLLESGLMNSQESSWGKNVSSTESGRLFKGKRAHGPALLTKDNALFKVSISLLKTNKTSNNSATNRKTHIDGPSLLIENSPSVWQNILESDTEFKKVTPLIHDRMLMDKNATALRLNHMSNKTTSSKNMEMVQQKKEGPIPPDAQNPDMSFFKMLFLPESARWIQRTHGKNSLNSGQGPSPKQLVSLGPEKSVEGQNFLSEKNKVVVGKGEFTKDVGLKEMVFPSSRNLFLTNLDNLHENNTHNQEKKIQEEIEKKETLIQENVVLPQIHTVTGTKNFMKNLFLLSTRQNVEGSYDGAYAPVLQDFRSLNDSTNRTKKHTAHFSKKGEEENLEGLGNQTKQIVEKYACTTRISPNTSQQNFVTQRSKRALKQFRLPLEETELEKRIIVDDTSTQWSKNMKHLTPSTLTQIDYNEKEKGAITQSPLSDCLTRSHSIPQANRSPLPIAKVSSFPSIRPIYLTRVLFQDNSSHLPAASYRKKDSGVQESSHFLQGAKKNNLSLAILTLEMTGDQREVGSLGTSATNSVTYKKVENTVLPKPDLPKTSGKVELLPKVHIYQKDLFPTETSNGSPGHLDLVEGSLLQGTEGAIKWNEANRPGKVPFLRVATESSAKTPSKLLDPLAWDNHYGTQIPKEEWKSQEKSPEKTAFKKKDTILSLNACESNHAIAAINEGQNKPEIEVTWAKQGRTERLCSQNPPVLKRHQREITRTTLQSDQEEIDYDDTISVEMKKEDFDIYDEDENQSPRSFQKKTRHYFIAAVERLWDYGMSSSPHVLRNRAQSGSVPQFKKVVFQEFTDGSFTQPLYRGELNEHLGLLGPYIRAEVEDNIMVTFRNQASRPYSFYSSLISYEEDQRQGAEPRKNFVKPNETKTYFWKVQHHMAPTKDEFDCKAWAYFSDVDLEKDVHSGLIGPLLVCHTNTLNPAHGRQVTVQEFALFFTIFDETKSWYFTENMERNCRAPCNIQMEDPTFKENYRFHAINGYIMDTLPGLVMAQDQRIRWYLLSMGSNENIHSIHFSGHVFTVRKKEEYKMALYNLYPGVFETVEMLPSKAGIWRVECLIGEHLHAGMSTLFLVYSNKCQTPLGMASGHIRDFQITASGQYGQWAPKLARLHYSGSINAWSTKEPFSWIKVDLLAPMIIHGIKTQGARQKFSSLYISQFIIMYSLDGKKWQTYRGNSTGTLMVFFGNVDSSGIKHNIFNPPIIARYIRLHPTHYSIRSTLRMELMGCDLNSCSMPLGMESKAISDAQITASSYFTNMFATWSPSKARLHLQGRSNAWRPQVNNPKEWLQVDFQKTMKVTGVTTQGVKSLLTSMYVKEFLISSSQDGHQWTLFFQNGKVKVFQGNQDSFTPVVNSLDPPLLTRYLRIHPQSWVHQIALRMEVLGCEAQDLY

Molecule: CNc1ccc2oc(C[C@H]3O[C@@]4(CC[C@H]3C)O[C@H]([C@H](C)C(=O)c3ccc[nH]3)[C@H](C)C[C@H]4C)nc2c1C(=O)O [A23187]
- NBD fluorescence lost [1]: > 90%
- fold induction at 0.25 µM [2]: ~3

Molecule: CCCCCCCC/C=C\CCCCCCCC(=O)OC[C@H](COP(=O)(O)OC[C@@H](N)C(=O)O)OC(=O)CCCCCCC/C=C\CCCCCCCC [dioleoyl Ptd-D-Ser]
- binding of lactadherin ([3]; listed as Ptd-D-Ser): did not support binding of lactadherin above the level supported by control membranes of PE:PC 20:80

Molecule: CCCCCCCC/C=C\CCCCCCCC(=O)OC[C@H](COP(=O)(O)OC[C@H](N)C(=O)O)OC(=O)CCCCCCC/C=C\CCCCCCCC [dioleoyl Ptd-L-Ser]
- binding of lactadherin [3]: Lactadherin bound to membranes; also recorded: bound lactadherin with high affinity, comparable to Ptd-L-Ser from biologic sources

Molecule: N[C@H](COP(=O)(O)O)C(=O)O [phospho-D-serine]
- inhibition of lactadherin binding [4]: ≤ 25%
- fold less effective as an inhibitor (vs. phospho-L-serine) ([4]; inhibition of lactadherin binding to lipospheres): at least 4 fold

Molecule: phosphate
- inhibition of lactadherin binding [4]: ≤ 25%

Molecule: phosphatidylcholine [PC]
- support of lactadherin binding [5]: supported low affinity lactadherin binding

Molecule: phosphatidylethanolamine [PE]
- effect on number of binding sites or affinity for lactadherin [5]: did not influence the apparent number of binding sites or affinity for lactadherin
- effect on number of binding sites or affinity for lactadherin ([5]; listed as phosphatidylethanolamine): did not enhance the apparent affinity or number of lactadherin binding sites

Molecule: phosphatidylinositol
- support of lactadherin binding [5]: does not support high affinity binding of lactadherin; also recorded: supported low affinity binding of lactadherin

Molecule: phosphatidylserine [Ptd-L-Ser]
- Kd ([5]; sonicated vesicles of 16% Ptd-L-Ser, n<60, read-out: KD (lower limit)): > 0.2 nM
- apparent KD, 1% Ptd-L-Ser vs. 4% Ptd-L-Ser membranes (fold difference) ([3]; lipospheres of 1% vs. 4% Ptd-L-Ser): ≤ 2 fold
- Kd ([3]; membranes Ptd-L-Ser:PE:PC 4:20:76 on glass microspheres, 10 min, read-out: KD (apparent)): 3.3 ± 0.4 nM
- Kd [6]: 4.8 nM
